Results from paper PMC10050424, “Structural basis of the substrate recognition and inhibition mechanism of Plasmodium falciparum nucleoside transporter PfENT1” (Nature Communications, 2023).
Several values for one entry are separate records, joined by “and”; a condition that tells them apart may be missing. Equal values may be shown once.

Experiments:
PfENT1WT = target: T1, PfENT1WT (Plasmodium falciparum, UniProt Q8IDM6); assay: biochemical; format: binding
T1 construct: 10xHis (N); made in house; host or cells: Sf9 insect cells (baculovirus)
T1 sequence (Q8IDM6 whole entry): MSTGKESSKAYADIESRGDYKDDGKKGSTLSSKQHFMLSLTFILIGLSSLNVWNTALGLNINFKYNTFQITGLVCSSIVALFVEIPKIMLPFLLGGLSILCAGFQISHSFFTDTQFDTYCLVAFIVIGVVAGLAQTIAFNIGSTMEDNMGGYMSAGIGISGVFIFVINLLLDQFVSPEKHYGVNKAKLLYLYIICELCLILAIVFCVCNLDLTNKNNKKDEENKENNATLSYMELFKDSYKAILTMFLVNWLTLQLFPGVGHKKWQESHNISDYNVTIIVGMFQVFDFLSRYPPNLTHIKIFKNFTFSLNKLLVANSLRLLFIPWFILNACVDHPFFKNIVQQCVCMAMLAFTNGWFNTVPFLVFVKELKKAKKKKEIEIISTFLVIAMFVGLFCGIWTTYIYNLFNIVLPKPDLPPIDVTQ
Procedure: For the in vitro binding assay, Sf9 cells were solubilized in lysis buffer containing 2% (w/v) n-dodecyl-β-D-maltopyranoside (DDM, Anatrace) and protease inhibitor cocktail (0.8 μM aprotinin, 2 μM pepstatin, and 5 μg/ml leupeptin) at 4 °C for 2 h. The soluble supernatant was collected via centrifugation and incubated with Ni-NTA resin (QIAGEN) at 4 °C for 1 h. The resin was washed and eluted using lysis buffer containing 0.05% (w/v) DDM and 30 mM/300 mM imidazole. The protein was further purified by size-exclusion chromatography (Superdex 200 Increase 10/300; GE Healthcare) in buffer containing 25 mM MES (pH 6.0), 150 mM NaCl, and 0.05% (w/v) DDM. The peak fractions were pooled and concentrated to 10~50 μM for the nucleoside-binding assay.
The binding affinity between wild-type and mutant PfENT1 with nucleosides and GSK4 was measured using a Micro-Cal ITC200 (Malvern). All proteins were prepared in 25 mM MES (pH 6.0), 150 mM NaCl, and 0.05% (w/v) DDM. Nucleosides (5~10 mM) and GSK4 (100-200 μM) dissolved in the same buffer were titrated against 20–50 μM PfENT1 proteins at 25 °C. PEAQ-ITC analysis software (MicroCal) was employed to analyze the data. All titrations were repeated three times.

PfENT1 = target: T2, PfENT1 (Plasmodium falciparum, UniProt Q8IDM6); assay: cell-based; format: cell-based; conditions: uptake without competitor set as 100%, Fig. 1c; for remaining activity at 5000 µM: 0.5 h, read-out: Uptake of [3H]-inosine (Percentage of PfENT1 WT), competition by nonradioactive nucleoside/nucleobase 5 mM, 30 min, 30 °C; for Uptake of [3H]-inosine (Percentage of PfENT1 WT): competition by nonradioactive nucleoside/nucleobase 5 mM, 30 min, 30 °C
T2 construct: expressed in transfected cells; host or cells: S. cerevisiae BY4741, FUI1 deleted, PfENT1 knock-in under the TEF1 promoter
T2 sequence (Q8IDM6 whole entry): as above
Procedure: The S. cerevisiae strain (ATCC, #201388) BY4741 (MATa his3Δ1 leu2Δ0 met15Δ0 ura3Δ0) was used as the starting yeast strain. Yeast strains were cultured in YPD medium (20 g/L peptone, 10 g/L yeast extract, and 20 g/L dextrose). The antibiotic G418 was supplemented at a concentration of 250 μg/mL to select strains carrying the KanMX marker. E. coli DH5α was used for subcloning.
Codon-optimized PfENT1 (for expression in yeast) was synthesized by Sangon Biotech. The carboxyl terminus of PfENT1 was HA-tagged through PCR. The TEF1p promoter and PGK1t terminator were amplified from BY4741 genomic DNA. Overlap PCR was applied to generate the gene overexpression cassette of PfENT1 (TEF1p promoter-PfENT1-PGK1t terminator). The two 600-bp homologous arms corresponding to the upstream and downstream regions of the FUI1 gene were amplified from BY4741 genomic DNA. The gene cassette of the ‘TEF1p promoter-PfENT1-PGK1t terminator’ together with the two homologous arms was cloned into the PUC19 plasmid through Gibson assembly, generating the final plasmid PUC19: PfENT1. PfENT1 mutations were generated using point mutation and verified by Sanger sequencing. The spacer targeting the FUI1 gene (5ʹ-[…]-3ʹ) was cloned into the pCas-BsaI plasmid to generate the pCas-FUI1 plasmid as described previously.
To obtain fui1Δ and PfENT1 (or its mutations) overexpression in the S. cerevisiae strain, 1 μg pCas-FUI1 plasmid and 15 μg PUC19:PfENT1 were transformed into yeast using the LiAc/ssDNA/PEG method. Then, the strains were plated on a YPD plate supplemented with G418. Clones were screened using PCR and finally verified through Sanger sequencing.
Cells were grown overnight in YPD medium to mid-log phase and harvested by centrifugation at 3000 × g for 5 min. Cells were washed three times in 2% glucose. The yeast pellets were resuspended in uptake assay buffer (25 mM Tris-HCl 8.0,150 mM NaCl, 2% glucose) to a final concentration of 2 × 10^8 cells mL^–1. The uptake assay was initiated by combining 100 μL of prewarmed (30 °C) cells and 100 μL uptake assay buffer mixture: 25 mM Tris-HCl 8.0, 150 mM NaCl, 2% glucose, 200 nM [^3H] Inosine ([8-^3H] inosine; 20 Ci mmol^–1, American Radiolabeled Chemicals). Cells were removed onto a membrane filter at the appropriate times to generate the time course. After washing by vacuum filtration with 2 ml ice-cold 2% glucose, the radioactivity retained on the filter was incubated with 1 mL of ULTIMA GOLD scintillation fluid (Perkin Elmer, 77-15311). Counts were measured using a liquid scintillation analyzer (Perkin Elmer, Tri-Carb 5110TR).
For competition assays, the indicated nucleosides and nucleobase were added into the external uptake assay buffer (25 mM Tris-HCl 8.0, 150 mM NaCl, and 2% glucose) to a final concentration of 5 mM, and the transport reaction was stopped at 30 min. The reading of the competition assays was normalized against the one without a competitor, which had the uptake of radiolabeled inosine set as 100%. All uptake assays were performed at 30 °C and repeated three times. Error bars represent the s.d. The final result was analyzed in the GraphPad Prism 8 software ([…]).

[1] = ITC, 25 °C, pH 6.0, mean ± SD (n = 3), Fig. 1a and text

| Compound | binding affinity (Kd) (PfENT1WT; [1]) | remaining activity at 5000 µM (PfENT1) [%] | Uptake of [3H]-inosine (Percentage of PfENT1 WT) (PfENT1) | Kd (PfENT1WT; Kd, Mean and Mean ± SD, source data Figure 1a) [µM] | Kd (PfENT1WT; Kd, N=3 (individual experiments), source data Figure 1a) | Kd (PfENT1WT; binding affinity (Kd), ITC, 25 °C, pH 6.0, mean ± SD (n = 3), Fig. 1a and text) | Uptake of [3H]-inosine (Percentage of PfENT1 WT) (PfENT1; listed as thymidine) |
| --- | --- | --- | --- | --- | --- | --- | --- |
| O=c1ccn([C@@H]2O[C@H](CO)[C@@H](O)[C@H]2O)c(=O)[nH]1 [Uridine, uridine] | undetectable | 81 | partially reduce inosine uptake |  |  |  |  |
| Nc1ccn([C@@H]2O[C@H](CO)[C@@H](O)[C@H]2O)c(=O)n1 [Cytidine, cytidine] | undetectable |  | did not influence inosine uptake |  |  |  |  |
| Nc1nc2c(ncn2[C@@H]2O[C@H](CO)[C@@H](O)[C@H]2O)c(=O)[nH]1 [Guanosine, guanosine] |  | 10 | abolished | 186 | 172 µM and 179 µM and 207 µM | ~186 µM and 186 µM |  |
| Nc1ncnc2c1ncn2[C@@H]1O[C@H](CO)[C@@H](O)[C@H]1O [Adenosine, adenosine] |  | 18 | relatively lower than that of inosine and guanosine |  |  |  |  |
| Cc1cn([C@H]2C[C@H](O)[C@@H](CO)O2)c(=O)[nH]c1=O [Thymidine, thymidine] | undetectable | 42 | 41% |  |  |  | partially reduce inosine uptake |
| O=c1[nH]cnc2nc[nH]c12 [Hypoxanthine, hypoxanthine] | undetectable | 23 | partial inhibition |  |  |  |  |
